According to BigSolDB 2.1:

O=C(O)c1ccccc1
Conditions	solubility (mole fraction)
in 2-butanone, 278.65 K	0.131
in 2-butanone, 284.29 K	0.148
in 2-butanone, 289.86 K	0.166
in 2-butanone, 295.54 K	0.186
in 2-butanone, 301.27 K	0.206
in 2-butanone, 307.1 K	0.229
in 2-butanone, 313.04 K	0.254
in 2-butanone, 319.06 K	0.281
in 2-butanone, 325.2 K	0.311
in MIBK, 276.45 K	0.11
in MIBK, 281.66 K	0.124
in MIBK, 287.16 K	0.139
in MIBK, 292.73 K	0.156
in MIBK, 298.25 K	0.175
in MIBK, 303.76 K	0.195
in MIBK, 309.36 K	0.217
in MIBK, 315.05 K	0.242
in MIBK, 320.74 K	0.264
in MIBK, 325.16 K	0.281
in ethyl acetate, 279.67 K	0.105
in ethyl acetate, 285.24 K	0.121
in ethyl acetate, 289.24 K	0.133
in ethyl acetate, 293.36 K	0.146
in ethyl acetate, 298.93 K	0.167
in ethyl acetate, 303.76 K	0.186
in ethyl acetate, 308.76 K	0.206
in ethyl acetate, 313.66 K	0.228
in ethyl acetate, 318.65 K	0.252
in ethyl acetate, 323.56 K	0.278
in ethyl acetate, 326.5 K	0.306
in isopropyl acetate, 276.27 K	0.0855
in isopropyl acetate, 283.74 K	0.105
in isopropyl acetate, 288.69 K	0.118
in isopropyl acetate, 293.67 K	0.134
in isopropyl acetate, 298.34 K	0.15
in isopropyl acetate, 303.36 K	0.168
in isopropyl acetate, 308.33 K	0.188
in isopropyl acetate, 313.25 K	0.209
in isopropyl acetate, 318.25 K	0.232
in isopropyl acetate, 324.02 K	0.26
in methanol, 278 K	0.111
in methanol, 285.5 K	0.129
in methanol, 292.23 K	0.145
in methanol, 298.99 K	0.164
in methanol, 304.78 K	0.18
in methanol, 312.56 K	0.204
in methanol, 319.32 K	0.227
in methanol, 323.49 K	0.241
in n-butanol, 276.92 K	0.116
in n-butanol, 281.92 K	0.13
in n-butanol, 291.77 K	0.16
in n-butanol, 296.56 K	0.176
in n-butanol, 301.56 K	0.194
in n-butanol, 311.66 K	0.234
in n-butanol, 316.79 K	0.256
in n-butanol, 321.9 K	0.279
in n-butanol, 327.3 K	0.306
in n-propanol, 279.06 K	0.119
in n-propanol, 284.15 K	0.133
in n-propanol, 289.26 K	0.148
in n-propanol, 294.47 K	0.164
in n-propanol, 299.65 K	0.182
in n-propanol, 304.75 K	0.2
in n-propanol, 310.06 K	0.221
in n-propanol, 315.41 K	0.242
in n-propanol, 320.77 K	0.266
in n-propanol, 326.16 K	0.291

CC(=O)Oc1ccccc1C(=O)O
Conditions	solubility (mole fraction)
in MIBK, 277.46 K	0.0196
in MIBK, 281.76 K	0.023
in MIBK, 287.96 K	0.0283
in MIBK, 292.96 K	0.0331
in MIBK, 300.18 K	0.0414
in MIBK, 307.27 K	0.0511
in MIBK, 312.47 K	0.0594
in MIBK, 318.36 K	0.07
in MIBK, 327.95 K	0.0897
in ethyl acetate, 275.86 K	0.0154
in ethyl acetate, 283.66 K	0.0204
in ethyl acetate, 289.86 K	0.0254
in ethyl acetate, 296.16 K	0.0313
in ethyl acetate, 302.67 K	0.0384
in ethyl acetate, 308.68 K	0.0467
in ethyl acetate, 315.16 K	0.0564
in ethyl acetate, 321.37 K	0.0676
in ethyl acetate, 327.91 K	0.0807
in isobutanol, 276.36 K	0.0098
in isobutanol, 284.46 K	0.0151
in isobutanol, 289.27 K	0.0194
in isobutanol, 294.3 K	0.0247
in isobutanol, 299.16 K	0.0309
in isobutanol, 303.65 K	0.0383
in isobutanol, 308.26 K	0.0469
in isobutanol, 312.61 K	0.0567
in isobutanol, 316.87 K	0.0679
in isobutanol, 320.96 K	0.0807
in isobutanol, 322.96 K	0.0875
in isobutanol, 326.57 K	0.1
in isobutyl acetate, 277.86 K	0.0109
in isobutyl acetate, 281.16 K	0.0124
in isobutyl acetate, 287.78 K	0.0157
in isobutyl acetate, 293.97 K	0.0198
in isobutyl acetate, 300.25 K	0.0247
in isobutyl acetate, 307.15 K	0.0306
in isobutyl acetate, 313.56 K	0.0376
in isobutyl acetate, 320.16 K	0.046
in isobutyl acetate, 327.15 K	0.0559
in n-butanol, 277.66 K	0.0145
in n-butanol, 282.35 K	0.0183
in n-butanol, 287.35 K	0.0232
in n-butanol, 292.35 K	0.0291
in n-butanol, 297.37 K	0.036
in n-butanol, 301.66 K	0.044
in n-butanol, 306.16 K	0.0531
in n-butanol, 310.35 K	0.0635
in n-butanol, 314.64 K	0.0752
in n-butanol, 318.75 K	0.0883
in n-butanol, 323.44 K	0.103
in n-propanol, 276.36 K	0.0164
in n-propanol, 282.96 K	0.0227
in n-propanol, 288.16 K	0.0286
in n-propanol, 293.16 K	0.0354
in n-propanol, 297.85 K	0.0434
in n-propanol, 302.55 K	0.0527
in n-propanol, 307.06 K	0.0632
in n-propanol, 311.66 K	0.0752
in n-propanol, 316.06 K	0.0887
in n-propanol, 320.45 K	0.104
in n-propanol, 324.75 K	0.121
